From patent US6713276B2, “Modulation of Aβ levels by β-secretase BACE2” (Scios, Inc., priority 2000, dated 2004) come the findings set out here.

The subject of data set [1] is APP751sw processing in HEK293T cells. Nature of the data set: co-transfection with APP751sw in HEK293T cells, ELISA of conditioned medium. The data set is classed as cell-based, human. As to conditions: co-transfected with APP751sw. The protocol:
(§1) Expression vectors containing BACE and BACE2 cDNAs were transfected into HEK293T cells in the presence of APP751sw or CT100 (Shoji et al., Science 258: 126-129 [1992]; Lichtenthaler et al., Proc. Natl. Acad. Sci. USA 96: 3053-3058 [1999]). Transfections were performed in 24 well plates using Lipofectamine Plus (Gibco/BRL, Bethesda, Md.) and DNA concentrations were kept constant by including non-specific DNA. Expression plasmids were tested for BACE and BACE2 expression by Western blotting. Cell culture supernatants were collected 48 hours and 72 hours post-transfection, and assayed for α-NTF, β-NTF and Aβ formation. β-NTF measurement was performed as described below. α-NTF was captured like β-NTF but was detected with biotinylated 2H3 (Johnson-Wood et al., Proc. Nati. Acad. Sci. USA 94: 1550-1555 [1997]). Aβ levels were determined by an ELISA using monoclonal antibodies 266 for capture and biotinylated 3D6 for detection (see Johnson-Wood et al., [1997] ibid for antibody epitope description). Aβ42, in contrast, was captured using 21F 12 and detected with biotinylated 3D6. Cell extracts prepared 72 hour post-transfection were separated by SDS-PAGE (Novex) and probed with CT695 (Zymed) for APP and CTFs as well as with an Aβ specific monoclonal antibody WO2 (kindly provided by K. Beyreuther; Ida et al., J. Biol. Chem. 271: 22908-22914 [1996]). […]
Given the ability of BACE2 to cleave APP at the β-secretase site in vitro, we investigated the role of BACE2 in HEK293T cells relative to BACE. […] Cell supernatants were collected 48 hours or 72 hours post-transfection and analyzed for α-NTF, β-NTF, total Aβ and Aβ42 as described in Genenral Methodology. […]
In an independent experiment, we addressed whether BACE2 competed with the ability of BACE to cleave APP at the β-secretase site. HEK293T cells were co-transfected with constant amounts of APP751sw and BACE, and increasing levels of BACE2. β-NTF and Aβ levels were then measured in culture supernatant (FIG. 3). […]

Data set [2] has as its system CT100 (C-terminal 100 amino acids of APP) processing in HEK293T cells. The data set is described as follows: co-transfection with CT100 in HEK293T cells, ELISA, Western blot, pulse-chase. It counts as cell-based, human. As to conditions: HEK293T, co-transfected with CT100. The method, then:
as §1, with “3D6.” for “3D6. Cell extracts prepared 72 hour post-transfection were separated by SDS-PAGE (Novex) and probed with CT695 (Zymed) for APP and CTFs as well as with an Aβ specific monoclonal antibody WO2 (kindly provided by K. Beyreuther; Ida et al., J. Biol. Chem. 271: 22908-22914 [1996]).”
This effect prompted investigation into whether β-secretase cleavage was required for Aβ suppression. The effects of BACE2 on the metabolism of the C-terminal 100 amino acids of APP (CT100), a construct that mimics prior β-secretase cleavage (Shoji et al., Science 258: 126-129 [1992]), was analyzed. […]
A general note: ELISA stands for enzyme-linked immunosorbent assay.

The subject of data set [3] is APP751sw. The data set is described as follows: cell-free β-secretase assay, β-NTF ELISA, APP751sw substrate. The data set is classed as biochemical, human. The settings on record: membrane extracts of transfected HEK293 cells, pH 4.5, 37° C. The method, then: The β-secretase assay consists of two different parts, an incubation or reaction phase to generate β-NTF and an ELISA part to capture and measure the β-NTF generated by β-secretase. The β-secretase ELISA was performed as follows. Each well of a 96 well plate containing a flat bottom (high protein binding, Corning, N.Y.) was coated with 100 μl of the monoclonal capture antibody 8E5 (at ˜8-10 μg/ml) (Johnson-Wood et al. Proc. Natl. Acad. Sci. USA 94: 1550-1555 [1997]). The plate was then covered with parafilm and incubated overnight at 4° C. or alternatively for 2 hours at 37° C. […]
One hundred μl of a 1:5000 dilution of a goat anti rabbit IgG-HRP in Antibody-Conjugate Buffer was then added to each well, and the plate incubated at room temperature for one hour. […] After sufficient blue color had developed, the reactions were stopped by adding 100 μl of 5N H2SO4 to each well, and the amount of βNTF was determined by reading the plate at 450 nm in a Softmax spectrophotometer.
Equal amounts of membrane extracts from either mock, BACE or BACE2 transfected HEK293 cells were incubated with partially purified full length APP751 sw or APP751wt for the indicated times. The formation of β-NTF was then determined using the respective β-NTF specific ELISA as described in General Methodology.

The subject of data set [4] is APP751sw processing in HEK293T cells. Nature of the data set: pulse-chase / pulse-labeling and immunoprecipitation of APP CTFs, Aβ and p3 in HEK293T cells. The settings on record: HEK293T, APP751sw, 15 min pulse, chase up to 90 minutes. The data set is classed as cell-based, human. The protocol:
Forty eight hours post-transfection, HEK293T cells were labeled for 15 minutes with 200 μCi Promix L [^35S] in vitro cell labeling mix (Amersham) and chased for up to 90 minutes according to standard procedures. APP CTFs were immunoprecipitated with antibodies 369 (Cai et al., Science 259: 514-516 [1993]). For immunoprecipitations of Aβ and p3 from conditioned medium, HEK293T cells were labeled for 5 hours with 300 μCi Promix L [^35S] in vitro cell labeling mix (Amersham) 48 hours post-transfection. Aβ40 and Aβ42 as well as the corresponding p3 species were immunoprecipitated with monoclonal antibodies 1702.1 and 108.1, respectively (Higaki et al., J. Med. Chem. 42: 3889-3898 [1999]).
To analyze the metabolism of APP as a consequence of BACE or BACE2 overexpression we performed a parallel pulse-chase experiment (FIG. 2e). HEK293T cells transfected as above were pulse-labeled and chased for up to 90 minutes and APP and CTFs were immunoprecipitated. […] An alternative β-secretase related cleavage product (β′-CTF) was also formed consistent with previous reports (Vassar et al., Science [1999] ibid; Higaki et al., Neuron 14: 651-659 [1995]). Consistent with its β-secretase activity, BACE2 overexpression led to a significant initial increase in β-CTF levels compared to mock-transfected cells. […] To determine whether BACE affected γ-secretase activity, we determined whether p3 could be formed. […]

Data set [5] has as its system APP751sw processing in SK-N-MC cells. The data set is described as follows: co-transfection with APP751sw in SK-N-MC neuroblastoma cells, ELISA of conditioned medium. As to conditions: co-transfected with APP751sw. It counts as cell-based, human. The protocol:
as §1, with “3D6.” for “3D6. Cell extracts prepared 72 hour post-transfection were separated by SDS-PAGE (Novex) and probed with CT695 (Zymed) for APP and CTFs as well as with an Aβ specific monoclonal antibody WO2 (kindly provided by K. Beyreuther; Ida et al., J. Biol. Chem. 271: 22908-22914 [1996]).”
We further assessed the modulatory effect of BACE2 on Aβ formation using a human neuroblastoma cell line, SK-N-MC.

Consider “BACE: β-site APP-cleaving enzyme, membrane-bound aspartyl protease, cloned from human brain cDNAs and overexpressed”, for which, in data set [1], the “total Aβ in conditioned medium” value is “Aβ production was not significantly stimulated” and the “α-NTF levels in conditioned medium” value is recorded as “α-NTF levels were proportionally reduced”. Further, the “total OD of α-NTF plus β-NTF” value in data set [1] (APP751sw alone ~2.59) is listed as ~2.3 OD. For the same substance, the “total Aβ and Aβ42 levels in conditioned medium” value in data set [2] is “did not affect the levels of Aβ”. Further, in data set [3], the “β-NTF formation (β-secretase cleavage in vitro)” value is reported as “time-dependent increase in β-NTF formation”. Besides, the “APP CTF turnover (β-CTF, β′-CTF, α-CTF)” value in data set [4] was “accumulation of β-CTF”. In data set [5], the “Aβ in conditioned medium” value is “very pronounced increase in both β-NTF and Aβ”; the “β-NTF in conditioned medium” value was “very pronounced increase in both β-NTF and Aβ”.
